Assay results: ChEMBL document CHEMBL5143744, “Discovery of Tenapanor: A First-in-Class Minimally Systemic Inhibitor of Intestinal Na+/H+ Exchanger Isoform 3” (ACS Med Chem Lett, 2022)
Calls of active or inactive are those of the source. The rule behind the calls is not given here.

Assays:
[1] = In vivo inhibition of NEH3 in Sprague-Dawley rat assessed as fecal form score at 3 mg/kg, po administered via gavage measured after 6 hrs; format: functional
[2] = In vivo inhibition of NEH3 in Sprague-Dawley rat assessed as fecal water content at 3 mg/kg, po administered via gavage measured after 6 hrs; format: functional; parameters: scale not given: the % may be the effect or the level left
[3] = In vivo inhibition of NEH3 in Sprague-Dawley rat assessed as sodium excretion in urine at 3 mg/kg, po administered via gavage measured after 16 hrs by ion chromatography relative to control; parameters: scale not given: the % may be the effect or the level left
[4] = molecular target: T1, Sodium/hydrogen exchanger 3 (Homo sapiens, UniProt P48764); assay: Inhibition of human NHE3 expressed in opossum kidney cells assessed as reduction in Na-HEPES buffer-mediated pH recovery in presence of NEH1 inhibitor ethyl isopropyl amiloride by BCECF-AM dye based fluorescence assay; format: cell-based, Kidney epithelial cell
T1 sequence (P48764 whole entry): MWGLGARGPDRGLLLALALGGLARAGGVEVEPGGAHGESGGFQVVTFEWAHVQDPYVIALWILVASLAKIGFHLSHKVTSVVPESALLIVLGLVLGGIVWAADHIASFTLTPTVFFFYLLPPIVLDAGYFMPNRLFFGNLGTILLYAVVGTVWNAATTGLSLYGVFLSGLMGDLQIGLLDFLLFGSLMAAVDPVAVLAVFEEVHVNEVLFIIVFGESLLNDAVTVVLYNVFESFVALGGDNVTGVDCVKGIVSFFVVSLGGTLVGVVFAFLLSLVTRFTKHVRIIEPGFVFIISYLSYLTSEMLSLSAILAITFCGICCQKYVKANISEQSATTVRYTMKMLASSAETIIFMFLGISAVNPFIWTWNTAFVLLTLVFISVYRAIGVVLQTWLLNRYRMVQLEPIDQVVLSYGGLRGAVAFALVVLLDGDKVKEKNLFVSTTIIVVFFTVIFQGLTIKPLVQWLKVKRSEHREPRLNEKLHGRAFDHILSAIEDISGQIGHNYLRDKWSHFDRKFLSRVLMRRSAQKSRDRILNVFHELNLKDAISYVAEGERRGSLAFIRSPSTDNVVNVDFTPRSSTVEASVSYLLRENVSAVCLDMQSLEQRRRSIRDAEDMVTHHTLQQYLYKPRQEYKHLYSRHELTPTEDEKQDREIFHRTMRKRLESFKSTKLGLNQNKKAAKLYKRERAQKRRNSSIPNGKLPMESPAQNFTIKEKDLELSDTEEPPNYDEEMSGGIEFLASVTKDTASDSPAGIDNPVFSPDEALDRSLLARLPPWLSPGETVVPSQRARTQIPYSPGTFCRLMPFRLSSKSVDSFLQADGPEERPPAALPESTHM

[5] = molecular target: Sodium/hydrogen exchanger 3 (Rattus norvegicus, UniProt P26433); assay: Inhibition of rat NHE3 expressed in opossum kidney cells assessed as reduction in Na-HEPES buffer-mediated pH recovery in presence of NEH1 inhibitor ethyl isopropyl amiloride by BCECF-AM dye based fluorescence assay; format: cell-based, Kidney epithelial cell
Chain of Sodium/hydrogen exchanger 3 (Rattus norvegicus, UniProt P26433) (P26433 whole entry): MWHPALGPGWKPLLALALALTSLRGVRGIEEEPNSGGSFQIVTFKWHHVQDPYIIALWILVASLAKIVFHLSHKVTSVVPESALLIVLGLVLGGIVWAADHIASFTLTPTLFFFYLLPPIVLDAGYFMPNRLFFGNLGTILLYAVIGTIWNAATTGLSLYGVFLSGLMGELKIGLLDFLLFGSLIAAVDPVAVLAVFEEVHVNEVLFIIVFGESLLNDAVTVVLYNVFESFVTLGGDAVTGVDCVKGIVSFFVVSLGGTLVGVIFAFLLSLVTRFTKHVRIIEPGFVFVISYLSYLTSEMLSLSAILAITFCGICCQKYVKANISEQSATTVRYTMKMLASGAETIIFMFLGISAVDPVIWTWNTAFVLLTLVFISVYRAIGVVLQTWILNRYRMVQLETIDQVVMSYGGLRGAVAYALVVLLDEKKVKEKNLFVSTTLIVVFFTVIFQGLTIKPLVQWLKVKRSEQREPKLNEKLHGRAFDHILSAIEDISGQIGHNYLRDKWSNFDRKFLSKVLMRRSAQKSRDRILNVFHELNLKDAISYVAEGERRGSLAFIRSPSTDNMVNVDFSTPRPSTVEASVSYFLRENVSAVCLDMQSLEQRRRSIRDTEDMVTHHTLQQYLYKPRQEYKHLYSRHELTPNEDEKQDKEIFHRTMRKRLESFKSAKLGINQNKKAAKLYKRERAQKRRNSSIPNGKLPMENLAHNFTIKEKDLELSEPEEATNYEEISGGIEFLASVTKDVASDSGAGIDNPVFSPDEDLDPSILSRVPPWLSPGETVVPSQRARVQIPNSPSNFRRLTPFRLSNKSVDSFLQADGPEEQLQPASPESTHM

[6] = Cmax in Sprague-Dawley rat at 1.5 mg/kg, po administered via gavage by LC-MS/MS analysis; format: ADME, organism-based; parameters: dose 1.5 mg/kg, route po; details: in vivo
Rattus norvegicus [7] = assay: In vivo inhibition of NEH3 in Sprague-Dawley rat assessed as increase in cecum water content at 10 mg/kg, po administered via gavage measured after 6 hrs; format: functional, organism-based
Rattus norvegicus [8] = assay: In vivo inhibition of NEH3 in Sprague-Dawley rat assessed as increase in colon water content at 10 mg/kg, po administered via gavage measured after 6 hrs; format: functional, organism-based
[9] = AUC in Sprague-Dawley rat at 1.5 mg/kg, po administered via gavage by LC-MS/MS analysis; details: in vivo
[10] = Cmax in Sprague-Dawley rat at 11 mg/kg, po administered via gavage by LC-MS/MS analysis; format: ADME, organism-based; parameters: dose 11 mg/kg, route po; details: in vivo
[11] = Oral bioavailability in Sprague-Dawley rat at 11 mg/kg administered via gavage by LC-MS/MS analysis; format: ADME, organism-based; details: in vivo
[12] = Apparent permeability in MDCK cells at 10 uM measured after 60 mins by LC-MS/MS analysis; format: ADME, cell-based, Canis lupus familiaris; details: dog, 1 h
[13] = AUC in Sprague-Dawley rat at 11 mg/kg, po administered via gavage by LC-MS/MS analysis; details: in vivo
Rattus norvegicus [14] = assay: In vivo inhibition of NEH3 in Sprague-Dawley rat assessed as reduction in sodium excretion in urine at 0.1 to 3 mg/kg, po administered via gavage measured after 16 hrs by ion chromatography; format: functional, organism-based; details: dose 0.1-3 mg/kg
[15] = In vivo inhibition of NEH3 in Sprague-Dawley rat assessed as increase in fecal water content at 0.1 to 3 mg/kg, po administered via gavage measured after 6 hrs; format: functional; parameters: scale not given: the % may be the effect or the level left; details: dose 0.1-3 mg/kg
[16] = Drug recovery in Sprague-Dawley rat feces at 3 mg/kg, po administered via gavage measured after 64 hrs by LC-MS/MS analysis; format: ADME, organism-based; details: faeces, read-out: Drug recovery
[17] = Drug metabolism in Sprague-Dawley rat feces at 3 mg/kg, po administered via gavage measured after 64 hrs by LC-MS/MS analysis; format: ADME, organism-based; details: in vivo
[18] = Cmax in Sprague-Dawley rat at 30 mg/kg, po administered via gavage by LC-MS/MS analysis; format: ADME, organism-based; parameters: dose 30 mg/kg, route po; details: in vivo
[19] = Drug metabolism in Sprague-Dawley rat at 30 mg/kg, po administered via gavage by LC-MS/MS analysis; format: ADME, organism-based; details: in vivo
hERG (KCNH2) = hERG (KCNH2) (Homo sapiens, UniProt Q12809); assay: Inhibition of human ERG at 10 uM relative to control; format: toxicity
Chain of hERG (KCNH2) (Q12809 whole entry): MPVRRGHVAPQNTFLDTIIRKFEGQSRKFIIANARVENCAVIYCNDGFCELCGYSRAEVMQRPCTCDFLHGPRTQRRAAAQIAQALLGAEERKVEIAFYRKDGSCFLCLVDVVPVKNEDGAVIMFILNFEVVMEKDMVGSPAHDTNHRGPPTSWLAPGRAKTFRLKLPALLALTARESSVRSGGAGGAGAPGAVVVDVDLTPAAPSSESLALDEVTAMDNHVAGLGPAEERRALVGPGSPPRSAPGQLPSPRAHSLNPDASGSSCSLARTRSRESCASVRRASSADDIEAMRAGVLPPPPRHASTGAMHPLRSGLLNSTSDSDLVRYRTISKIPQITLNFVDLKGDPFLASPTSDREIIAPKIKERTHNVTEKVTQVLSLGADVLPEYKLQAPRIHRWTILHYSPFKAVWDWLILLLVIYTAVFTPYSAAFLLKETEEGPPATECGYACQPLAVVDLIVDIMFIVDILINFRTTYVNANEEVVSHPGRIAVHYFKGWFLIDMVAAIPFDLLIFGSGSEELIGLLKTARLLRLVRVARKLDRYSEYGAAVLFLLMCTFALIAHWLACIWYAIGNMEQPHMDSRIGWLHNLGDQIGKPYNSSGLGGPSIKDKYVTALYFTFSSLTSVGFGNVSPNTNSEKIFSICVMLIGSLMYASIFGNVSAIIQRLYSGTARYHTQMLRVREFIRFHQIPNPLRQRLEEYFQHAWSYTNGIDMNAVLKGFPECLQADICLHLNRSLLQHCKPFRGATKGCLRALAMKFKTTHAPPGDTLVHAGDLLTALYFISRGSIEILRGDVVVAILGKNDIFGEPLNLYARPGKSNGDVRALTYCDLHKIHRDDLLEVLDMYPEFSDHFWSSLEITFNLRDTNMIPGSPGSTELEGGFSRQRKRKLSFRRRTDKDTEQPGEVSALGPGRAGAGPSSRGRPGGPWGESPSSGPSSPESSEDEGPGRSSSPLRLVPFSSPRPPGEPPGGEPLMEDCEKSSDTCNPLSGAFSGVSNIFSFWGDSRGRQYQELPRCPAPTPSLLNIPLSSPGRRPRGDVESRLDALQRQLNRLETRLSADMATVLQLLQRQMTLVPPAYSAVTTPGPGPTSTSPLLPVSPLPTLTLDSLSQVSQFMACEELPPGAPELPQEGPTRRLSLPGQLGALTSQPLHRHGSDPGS

[20] = Drug recovery in Sprague-Dawley rat feces at 0.1 mg/kg, po administered via gavage measured after 72 hrs by LC-MS/MS analysis; format: ADME, organism-based; details: faeces, read-out: Drug recovery
[21] = Drug metabolism in Sprague-Dawley rat feces at 0.1 mg/kg, po administered via gavage measured after 72 hrs by LC-MS/MS analysis; format: ADME, organism-based; details: in vivo

SMILES	Activity [1]	Activity [2] [%]	Activity [3] [%]	IC50 [4] [nM]	IC50 [5] [nM]	further results
CN1Cc2c(Cl)cc(Cl)cc2C(c2ccc(S(=O)(=O)NCCOCCOCCNC(=O)COCC(=O)NCCOCCOCCNS(=O)(=O)c3ccc(C4CN(C)Cc5c(Cl)cc(Cl)cc54)cc3)cc2)C1 (racemic)	2.5	59	29	–	–	–
CN1Cc2c(Cl)cc(Cl)cc2[C@H](c2cccc(NC(=O)[C@H](O)[C@@H](O)[C@H](O)[C@H](O)CO)c2)C1	–	–	–	25.1	39.8	Cmax [6]: 6 ng/mL; inhibition (Rattus norvegicus [7]): Active; inhibition (Rattus norvegicus [8]): Active; AUC [9]: 12 ng·h/mL
CN1Cc2c(Cl)cc(Cl)cc2C(c2cccc(S(=O)(=O)NCCCP(=O)(O)O)c2)C1 (racemic)	–	–	–	5010	63.1	–
CN1Cc2c(Cl)cc(Cl)cc2C(c2ccc(S(=O)(=O)NCCOCCOCCNC(=O)NCCCCNC(=O)NCCOCCOCCNS(=O)(=O)c3ccc(C4CN(C)Cc5c(Cl)cc(Cl)cc54)cc3)cc2)C1 (racemic)	3	60	14	–	–	–
CN1Cc2c(Cl)cc(Cl)cc2C(c2cccc(S(=O)(=O)NCCCS(=O)(=O)O)c2)C1 (racemic)	–	–	–	1580	50.1	–
CN1Cc2c(Cl)cc(Cl)cc2C(c2cccc(S(=O)(=O)NCCOCCOCCNS(=O)(=O)c3cccc(C4CN(C)Cc5c(Cl)cc(Cl)cc54)c3)c2)C1 (racemic)	–	–	–	5010	–	–
CN1Cc2c(Cl)cc(Cl)cc2C(c2cccc(S(=O)(=O)NCCOCCOCCOCCNC(=O)Nc3ccc(NC(=O)NCCOCCOCCOCCNS(=O)(=O)c4cccc(C5CN(C)Cc6c(Cl)cc(Cl)cc65)c4)cc3)c2)C1 (racemic)	2	54	42	–	6310	–
CN1Cc2c(Cl)cc(Cl)cc2C(c2cccc(S(N)(=O)=O)c2)C1 (racemic)	–	–	–	631	–	Cmax [10]: 159 ng/mL; F [11]: 98%; Papp [12]: >= 10 10^-6 cm/s; AUC [13]: 522 ng·h/mL
CN1Cc2c(Cl)cc(Cl)cc2[C@H](c2cccc(S(=O)(=O)NCCOCCOCCOCCNC(=O)NCCOCCOCCOCCNS(=O)(=O)c3cccc([C@@H]4CN(C)Cc5c(Cl)cc(Cl)cc54)c3)c2)C1	–	–	–	–	–	inhibition (Rattus norvegicus [14]): Active; Activity [15]: 10%; dose excreted at 64 h [16]: 82%; Drug metabolism [17]: Metabolite_Detected; Cmax ([18]; Sprague-Dawley, read-out: Cmax): < 5 ng/mL; Drug metabolism [19]: Metabolite_Notdetected; inhibition at 10 µM (hERG (KCNH2)): < 50%
CN(CC(=O)NCCOCCOCCNS(=O)(=O)c1ccc(C2CN(C)Cc3c(Cl)cc(Cl)cc32)cc1)CC(=O)NCCOCCOCCNS(=O)(=O)c1ccc(C2CN(C)Cc3c(Cl)cc(Cl)cc32)cc1 (racemic)	3	57	45	–	–	–
CN1Cc2c(Cl)cc(Cl)cc2C(c2ccc(S(=O)(=O)NCCOCCOCCNC(=O)Nc3ccc(NC(=O)NCCOCCOCCNS(=O)(=O)c4ccc(C5CN(C)Cc6c(Cl)cc(Cl)cc65)cc4)cc3)cc2)C1 (racemic)	3	58	29	–	–	–
CN1Cc2c(Cl)cc(Cl)cc2C(c2ccc(S(=O)(=O)NCCOCCOCCNC(=O)CCC(=O)NCCOCCOCCNS(=O)(=O)c3ccc(C4CN(C)Cc5c(Cl)cc(Cl)cc54)cc3)cc2)C1 (racemic)	3.5	60	23	–	–	–
CN1Cc2c(Cl)cc(Cl)cc2C(c2cccc(S(=O)(=O)NCC(=O)O)c2)C1 (racemic)	–	–	–	100	100	–
CN1Cc2c(Cl)cc(Cl)cc2C(c2cccc(S(=O)(=O)NCCOCCOCCNC(=O)Nc3ccc(NC(=O)NCCOCCOCCNS(=O)(=O)c4cccc(C5CN(C)Cc6c(Cl)cc(Cl)cc65)c4)cc3)c2)C1 (racemic)	3	60	32	–	7.94	–
CN1Cc2c(Cl)cc(Cl)cc2C(c2cccc(NC(=O)[C@H](O)[C@@H](O)[C@H](O)[C@H](O)CO)c2)C1 (mixture of isomers)	–	–	–	50.1	39.8	–
CN1Cc2c(Cl)cc(Cl)cc2C(c2cccc(S(=O)(=O)NCCOCCOCCNC(=O)NCCCCNC(=O)NCCOCCOCCNS(=O)(=O)c3cccc(C4CN(C)Cc5c(Cl)cc(Cl)cc54)c3)c2)C1 (racemic)	4.5	64	22	–	3.16	–
CN1Cc2c(Cl)cc(Cl)cc2C(c2cccc(S(=O)(=O)NCCOCCOCCNC(=O)NCCOCCOCCNS(=O)(=O)c3cccc(C4CN(C)Cc5c(Cl)cc(Cl)cc54)c3)c2)C1 (stereo not given)	1	50	100	2000	–	Cmax [10]: < 5 ng/mL; AUC [13]: < 19 ng·h/mL
CN1Cc2c(Cl)cc(Cl)cc2[C@H](c2cccc(S(=O)(=O)NCCOCCOCCNC(=O)CCC(=O)NCCOCCOCCNS(=O)(=O)c3cccc([C@@H]4CN(C)Cc5c(Cl)cc(Cl)cc54)c3)c2)C1	–	–	–	–	–	inhibition (Rattus norvegicus [14]): Active; Activity [15]: 10%; dose excreted at 72 h [20]: 46%; Drug metabolism [21]: Metabolite_Notdetected; Cmax ([18]; Sprague-Dawley, read-out: Cmax): < 2 ng/mL; Drug metabolism [19]: Metabolite_Notdetected; inhibition at 10 µM (hERG (KCNH2)): < 50%
CN1Cc2c(Cl)cc(Cl)cc2[C@@H](c2cccc(NC(=O)[C@H](O)[C@@H](O)[C@H](O)[C@H](O)CO)c2)C1	–	–	–	2510	7940	–
CN1Cc2c(Cl)cc(Cl)cc2C(c2cccc(S(=O)(=O)NCCOCCOCCOCCNC(=O)NCCCCNC(=O)NCCOCCOCCOCCNS(=O)(=O)c3cccc(C4CN(C)Cc5c(Cl)cc(Cl)cc54)c3)c2)C1 (racemic)	3	57	50	–	–	–
CN1Cc2c(Cl)cc(Cl)cc2[C@H](c2cccc(S(=O)(=O)NCCOCCOCCOCCNC(=O)NCCCNC(=O)NCCOCCOCCOCCNS(=O)(=O)c3cccc([C@@H]4CN(C)Cc5c(Cl)cc(Cl)cc54)c3)c2)C1	–	–	–	–	–	dose excreted at 64 h [16]: 96%; Drug metabolism [17]: Metabolite_Notdetected; Cmax ([18]; Sprague-Dawley, read-out: Cmax): < 15 ng/mL; Drug metabolism [19]: Metabolite_Notdetected; inhibition at 10 µM (hERG (KCNH2)): < 50%
CN1Cc2c(Cl)cc(Cl)cc2[C@H](c2cccc(S(=O)(=O)NCCOCCOCCNC(=O)Nc3ccc(NC(=O)NCCOCCOCCNS(=O)(=O)c4cccc([C@@H]5CN(C)Cc6c(Cl)cc(Cl)cc65)c4)cc3)c2)C1	–	–	–	1.58	–	inhibition (Rattus norvegicus [14]): Active; Activity [15]: 10%; dose excreted at 72 h [20]: 93%; Drug metabolism [21]: Metabolite_Notdetected; Cmax [18]: < 2 ng/mL; Drug metabolism [19]: Metabolite_Notdetected; inhibition at 10 µM (hERG (KCNH2)): < 50%
